Experimental data published in patent US20230248788A1, “COMPOSITIONS AND RELATED METHODS FOR SUPPORTING COMPANION ANIMALS WITH GASTROINTESTINAL DISORDERS” (priority 2020, published 2023).
Values after ≈ are worked out from the molar mass of the structure shown. Like-named read-outs stand apart in the source and are kept apart here.

Tests used:
[1] = test system: L. brevis WF-1B; assay: Antibiotic susceptibility assay, broth microdilution; type: cell-based, Levilactobacillus brevis; conditions: for MIC: antibiotic against L. brevis WF-1B; for susceptibility of L. brevis WF-1B to the antibiotic: MIC compared with EFSA cut-off value
Method: Broth microdilution was used to determine the susceptibility of the L. brevis WF-1B isolate against eight commonly used clinical antibiotics. Broth micro-dilution was performed following the methods according to: International Organization for Standardization, Milk and milk products—Determination of the minimal inhibitory concentration (MIC) of antibiotics applicable to bifidobacteria and non-enterrococcal lactic acid bacteria (LAB) (ISO 10932:2012). Antibiotic stock solutions were prepared following the methods according to: CLSI, Performance Standards for Antimicrobial Susceptibility Testing, 23rd edition, CLSI Standard M100, Wayne, Pa.: Clinical and Laboratory Standards Institute; 2013. The measured minimum inhibitory concentrations (MICs) and microbiological cut-off values from the antibiotic susceptibility assays for L. brevis WF-1B are shown below in Table 5.

[2] = test system: L. brevis WF-1B; conditions: EFSA microbiological cut-off value; cited from earlier work
[3] = Levilactobacillus brevis, WF1B, read-out: MIC

Compound	MIC [1, 3]	susceptibility of L. brevis WF-1B to the antibiotic [1]	Cut-off value [2]	MIC [1]
CC1(C)S[C@@H]2[C@H](NC(=O)[C@H](N)c3ccccc3)C(=O)N2[C@H]1C(=O)O [Ampicillin]	8 µg/mL (≈ 22.9 µM)	resistant	2 µg/mL	
O=C(N[C@H](CO)[C@H](O)c1ccc([N+](=O)[O-])cc1)C(Cl)Cl [Chloramphenicol]	16 µg/mL (≈ 49.5 µM)	resistant	4 µg/mL	
CCC[C@@H]1C[C@@H](C(=O)N[C@@H]([C@H]2O[C@H](SC)[C@H](O)[C@@H](O)[C@H]2O)[C@H](C)Cl)N(C)C1 [Clindamycin]	8 µg/mL (≈ 18.8 µM)			
CC[C@H]1OC(=O)[C@H](C)[C@@H](O[C@H]2C[C@@](C)(OC)[C@@H](O)[C@H](C)O2)[C@H](C)[C@@H](O[C@@H]2O[C@H](C)C[C@H](N(C)C)[C@H]2O)[C@](C)(O)C[C@@H](C)C(=O)[C@H](C)[C@@H](O)[C@]1(C)O [Erythromycin]	0.83 µg/mL (≈ 1.13 µM)	sensitive	1 µg/mL	
NC[C@H]1O[C@H](O[C@H]2[C@H](O)[C@@H](O[C@H]3O[C@H](CO)[C@@H](O)[C@H](N)[C@H]3O)[C@H](N)C[C@@H]2N)[C@H](O)[C@@H](O)[C@@H]1O [Kanamycin]	85 µg/mL (≈ 175 µM)			
[H]/N=C(/N)N[C@H]1[C@H](O)[C@@H](O)[C@H](O[C@@H]2O[C@@H](C)[C@](O)(C=O)[C@H]2O[C@@H]2O[C@@H](CO)[C@H](O)[C@@H](O)[C@@H]2NC)[C@@H](N/C(N)=N\[H])[C@@H]1O [Streptomycin]	8 µg/mL (≈ 13.8 µM)	sensitive	64 µg/mL	
CN(C)[C@@H]1C(O)=C(C(N)=O)C(=O)[C@@]2(O)C(O)=C3C(=O)c4c(O)cccc4[C@@](C)(O)[C@H]3C[C@@H]12 [Tetracycline]	64 µg/mL (≈ 144 µM)			
Gentamicin		sensitive	16 µg/mL	3 µg/mL
